# Data taken from ChEMBL document CHEMBL4715697, “Synthesis and biological activity of benzamide DNA minor groove binders” (2016).
# Legend:
# Type in all cases: functional
# [1] = tested on: TK-10; assay: Growth inhibition of human TK-10 cells assessed as cell growth at 0.01 uM incubated for 48 hrs by sulforhodamine B assay relative to control; details: read-out: Activity
# [2] = tested on: 786-0; assay: Growth inhibition of human 786-0 cells incubated for 48 hrs by sulforhodamine B assay
# [3] = tested on: A549; assay: Growth inhibition of human A549/ATCC cells assessed as cell growth at 100 uM incubated for 48 hrs by sulforhodamine B assay relative to control; details: read-out: Activity
# [4] = tested on: HCT-116; assay: Growth inhibition of human HCT-116 cells incubated for 48 hrs by sulforhodamine B assay
# [5] = tested on: SK-OV-3; assay: Growth inhibition of human SK-OV-3 cells assessed as cell growth at 1 uM incubated for 48 hrs by sulforhodamine B assay relative to control; details: read-out: Activity
# [6] = tested on: KM12; assay: Growth inhibition of human KM12 cells assessed as cell growth at 1 uM incubated for 48 hrs by sulforhodamine B assay relative to control; details: read-out: Activity
# [7] = tested on: SK-MEL-5; assay: Growth inhibition of human SK-MEL-5 cells assessed as cell growth at 1 uM incubated for 48 hrs by sulforhodamine B assay relative to control; details: read-out: Activity
# [8] = tested on: SW-620; assay: Growth inhibition of human SW-620 cells assessed as cell growth at 0.01 uM incubated for 48 hrs by sulforhodamine B assay relative to control; details: read-out: Activity
# [9] = tested on: K562; assay: Growth inhibition of human K562 cells assessed as cell growth at 1 uM incubated for 48 hrs by sulforhodamine B assay relative to control; details: read-out: Activity
# [10] = tested on: Malme-3M; assay: Growth inhibition of human Malme-3M cells assessed as cell growth at 100 uM incubated for 48 hrs by sulforhodamine B assay relative to control; details: read-out: Activity
# [11] = tested on: SNB-75; assay: Growth inhibition of human SNB-75 cells incubated for 48 hrs by sulforhodamine B assay
# [12] = tested on: A498; assay: Growth inhibition of human A498 cells assessed as cell growth at 1 uM incubated for 48 hrs by sulforhodamine B assay relative to control; details: read-out: Activity
# [13] = tested on: PC-3; assay: Growth inhibition of human PC-3 cells assessed as cell growth at 1 uM incubated for 48 hrs by sulforhodamine B assay relative to control; details: read-out: Activity
# [14] = tested on: OVCAR-4; assay: Growth inhibition of human OVCAR-4 cells assessed as cell growth at 0.01 uM incubated for 48 hrs by sulforhodamine B assay relative to control; details: read-out: Activity
# [15] = tested on: Malme-3M; assay: Growth inhibition of human Malme-3M cells assessed as cell growth at 1 uM incubated for 48 hrs by sulforhodamine B assay relative to control; details: read-out: Activity
# [16] = tested on: HOP-62; assay: Growth inhibition of human HOP-62 cells assessed as cell growth at 0.01 uM incubated for 48 hrs by sulforhodamine B assay relative to control; details: read-out: Activity
# [17] = tested on: A498; assay: Growth inhibition of human A498 cells incubated for 48 hrs by sulforhodamine B assay
# [18] = tested on: K562; assay: Growth inhibition of human K562 cells assessed as cell growth at 100 uM incubated for 48 hrs by sulforhodamine B assay relative to control; details: read-out: Activity
# [19] = tested on: HOP-62; assay: Growth inhibition of human HOP-62 cells incubated for 48 hrs by sulforhodamine B assay
# [20] = tested on: UACC-62; assay: Growth inhibition of human UACC-62 cells incubated for 48 hrs by sulforhodamine B assay
# [21] = tested on: SW-620; assay: Growth inhibition of human SW-620 cells incubated for 48 hrs by sulforhodamine B assay
# [22] = tested on: NCI-H322M; assay: Growth inhibition of human NCI-H322M cells assessed as cell growth at 1 uM incubated for 48 hrs by sulforhodamine B assay relative to control; details: read-out: Activity
# [23] = tested on: DU-145; assay: Growth inhibition of human DU-145 cells assessed as cell growth at 1 uM incubated for 48 hrs by sulforhodamine B assay relative to control; details: read-out: Activity
# [24] = tested on: NCI/ADR-RES; assay: Growth inhibition of human NCI/ADR-RES cells assessed as cell growth at 100 uM incubated for 48 hrs by sulforhodamine B assay relative to control; details: read-out: Activity
# [25] = tested on: UO-31; assay: Growth inhibition of human UO-31 cells assessed as cell growth at 0.1 uM incubated for 48 hrs by sulforhodamine B assay relative to control; details: read-out: Activity
# [26] = tested on: SN12C; assay: Growth inhibition of human SN12C cells assessed as cell growth at 100 uM incubated for 48 hrs by sulforhodamine B assay relative to control; details: read-out: Activity
# [27] = tested on: UACC-62; assay: Growth inhibition of human UACC-62 cells assessed as cell growth at 100 uM incubated for 48 hrs by sulforhodamine B assay relative to control; details: read-out: Activity
# [28] = tested on: RPMI-8226; assay: Growth inhibition of human RPMI-8226 cells assessed as cell growth at 100 uM incubated for 48 hrs by sulforhodamine B assay relative to control; details: read-out: Activity
# [29] = tested on: KM12; assay: Growth inhibition of human KM12 cells assessed as cell growth at 100 uM incubated for 48 hrs by sulforhodamine B assay relative to control; details: read-out: Activity
# [30] = tested on: SF-268; assay: Growth inhibition of human SF-268 cells assessed as cell growth at 0.01 uM incubated for 48 hrs by sulforhodamine B assay relative to control; details: read-out: Activity
# [31] = tested on: SNB-75; assay: Growth inhibition of human SNB-75 cells assessed as cell growth at 1 uM incubated for 48 hrs by sulforhodamine B assay relative to control; details: read-out: Activity
# [32] = tested on: RPMI-8226; assay: Growth inhibition of human RPMI-8226 cells assessed as cell growth at 0.01 uM incubated for 48 hrs by sulforhodamine B assay relative to control; details: read-out: Activity
# [33] = tested on: TK-10; assay: Growth inhibition of human TK-10 cells assessed as cell growth at 0.1 uM incubated for 48 hrs by sulforhodamine B assay relative to control; details: read-out: Activity
# [34] = tested on: Hs-578T; assay: Growth inhibition of human Hs-578T cells assessed as cell growth at 0.1 uM incubated for 48 hrs by sulforhodamine B assay relative to control; details: read-out: Activity
# [35] = tested on: DU-145; assay: Growth inhibition of human DU-145 cells assessed as cell growth at 0.01 uM incubated for 48 hrs by sulforhodamine B assay relative to control; details: read-out: Activity
# [36] = read-out: LC50 (the source's name)
# [37] = read-out: pLC50 (the source's name) (converted)
compound,measurement,setting,value
CC(=O)Nc1cc(CO[Si](C)(C)C(C)(C)C)cc(NC(=O)c2ccc(C(=O)Nc3cccc(NC(=O)CCCN(C)C)c3)cc2)c1,growth at 0.01 µM,[1],96%
same,GI50,[2]; read-out: GI50,> 75 µM
same,LC50,[2]; read-out: LC50,> 75 µM
same,TGI,[2]; read-out: TGI,> 75 µM
same,GI50,[2]; read-out: pGI50 (converted),> 75.9 µM
same,LC50,[2]; read-out: pLC50 (converted),> 75.9 µM
same,TGI,[2]; read-out: pTGI,> 75.9 µM
same,growth at 100 µM,[3],98%
same,GI50,[4]; read-out: GI50,> 75 µM
same,CC50,[4]; [36],> 75 µM
same,TGI,[4]; read-out: TGI,> 75 µM
same,GI50,[4]; read-out: pGI50 (converted),> 75.9 µM
same,CC50,[4]; [37],> 75.9 µM
same,TGI,[4]; read-out: pTGI,> 75.9 µM
same,growth at 1 µM,[5],107%
same,growth at 1 µM,[6],99%
same,growth at 1 µM,[7],98%
same,growth at 0.01 µM,[8],100%
same,growth at 1 µM,[9],95%
same,growth at 100 µM,[10],33%
same,GI50,[11]; read-out: GI50,> 75 µM
same,LC50,[11]; read-out: LC50,> 75 µM
same,TGI,[11]; read-out: TGI,> 75 µM
same,GI50,[11]; read-out: pGI50 (converted),> 75.9 µM
same,LC50,[11]; read-out: pLC50 (converted),> 75.9 µM
same,TGI,[11]; read-out: pTGI,> 75.9 µM
same,growth at 1 µM,[12],48%
same,growth at 1 µM,[13],105%
same,growth at 0.01 µM,[14],95%
same,growth at 1 µM,[15],94%
same,growth at 0.01 µM,[16],97%
same,LC50 (concentration giving 50% net cell kill),[17]; read-out: LC50,> 75 µM
same,TGI,[17]; read-out: TGI,> 75 µM
same,LC50 (concentration giving 50% net cell kill),[17]; read-out: pLC50 (converted),> 75.9 µM
same,TGI,[17]; read-out: pTGI,> 75.9 µM
same,growth at 100 µM,[18],94%
same,GI50,[19]; read-out: GI50,> 75 µM
same,CC50,[19]; [36],> 75 µM
same,TGI,[19]; read-out: TGI,> 75 µM
same,GI50,[19]; read-out: pGI50 (converted),> 75.9 µM
same,CC50,[19]; [37],> 75.9 µM
same,TGI,[19]; read-out: pTGI,> 75.9 µM
same,GI50,[20]; read-out: GI50,> 75 µM
same,CC50,[20]; [36],> 75 µM
same,TGI,[20]; read-out: TGI,> 75 µM
same,GI50,[20]; read-out: pGI50 (converted),> 75.9 µM
same,CC50,[20]; [37],> 75.9 µM
same,TGI,[20]; read-out: pTGI,> 75.9 µM
same,GI50,[21]; read-out: GI50,> 75 µM
same,LC50,[21]; read-out: LC50,> 75 µM
same,TGI,[21]; read-out: TGI,> 75 µM
same,GI50,[21]; read-out: pGI50 (converted),> 75.9 µM
same,LC50,[21]; read-out: pLC50 (converted),> 75.9 µM
same,TGI,[21]; read-out: pTGI,> 75.9 µM
same,growth at 1 µM,[22],97%
same,growth at 1 µM,[23],88%
same,growth at 100 µM,[24],92%
same,growth at 0.1 µM,[25],94%
same,growth at 100 µM,[26],91%
same,growth at 100 µM,[27],72%
same,growth at 100 µM,[28],104%
same,growth at 100 µM,[29],88%
same,growth at 0.01 µM,[30],99%
same,growth at 1 µM,[31],80%
same,growth at 0.01 µM,[32],95%
same,growth at 0.1 µM,[33],99%
same,growth at 0.1 µM,[34],121%
same,growth at 0.01 µM,[35],103%
